Settings: Liquid, Transpiration method

OCc1ccccc1 [benzenemethanol]
Settings	vapor or sublimation pressure [kPa]
282.9 K	0.00306
285.9 K	0.00407
288.9 K	0.00532
292.1 K	0.00738
295.3 K	0.00983
298.2 K	0.01251
301.2 K	0.01645
302.8 K	0.01923
305.8 K	0.02541
308.8 K	0.03192
311.7 K	0.03999
314.9 K	0.05172
318.1 K	0.06709
321.1 K	0.08348

CC(C)(C)OCc1ccccc1 [ether, benzyl tert-butyl]
Settings	vapor or sublimation pressure [kPa]
277.8 K	0.00512
278.1 K	0.00528
279.1 K	0.00577
281.3 K	0.00698
282.9 K	0.00797
284.3 K	0.00893
286.2 K	0.01095
287.3 K	0.01177
287.8 K	0.01209
288.2 K	0.0131
290 K	0.01485
292.2 K	0.0182
293 K	0.01888
293.2 K	0.01908
295.2 K	0.02312
296.2 K	0.02445
297.2 K	0.02652
298 K	0.02843
298.2 K	0.02924
299.2 K	0.03085
300.3 K	0.03419
302.2 K	0.03875
303.1 K	0.04177
303.2 K	0.04305
308 K	0.05754

From the NIST ThermoML archive (doi:10.1021/je049823k)
